In data set [1] the test system is Botryotinia fuckeliana (Botrytis cinerea). The data set can be described thus: Botryotinia fuckeliana (Botrytis cinerea)/Liquid Culture (Gray Mould). The note with it: liquid culture, compared to untreated control. Format: cell-based. As to the method:
Conidia of the fungus from cryogenic storage are directly mixed into nutrient broth (Vogels broth). After placing a (DMSO) solution of test compound into a microtiter plate (96-well format), the nutrient broth containing the fungal spores is added.

For data set [2], the system named is Glomerella lagenarium (Colletotrichum lagenarium). Nature of the data set: Glomerella lagenarium (Colletotrichum lagenarium)/Liquid Culture (Anthracnose). Format: cell-based. The note with it: Colletotrichum orbiculare, liquid culture, compared to untreated control.
In data set [3] the test system is Phaeosphaeria nodorum (Septoria nodorum). The data set can be described thus: Phaeosphaeria nodorum (Septoria nodorum)/Wheat/Leaf Disc Preventative (Glume Blotch). In kind it is in vivo. The note with it: Parastagonospora nodorum, foliar, wheat leaf disc preventative, compared to untreated control. As to the method:
Wheat leaf segments cv. Kanzler are placed on agar in a multiwell plate (24-well format) and sprayed with the formulated test compound diluted in water. The leaf disks are inoculated with a spore suspension of the fungus 2 days after application. The inoculated test leaf disks are incubated at 20° C. and 75% rh under a light regime of 12 h light/12 h darkness in a climate cabinet and the activity of a compound is assessed as percent disease control compared to untreated when an appropriate level of disease damage appears in untreated check leaf disks (5-7 days after application).

The subject of data set [4] is Monographella nivalis (Microdochium nivale). Nature of the data set: Monographella nivalis (Microdochium nivale)/Liquid Culture (Foot Rot Cereals). Format: cell-based. The following applies: liquid culture, compared to untreated control. On the procedure: (§1) Conidia of the fungus from cryogenic storage are directly mixed into nutrient broth (PDB potato dextrose broth). After placing a (DMSO) solution of test compound into a microtiter plate (96-well format), the nutrient broth containing the fungal spores is added.

The subject of data set [5] is Mycosphaerella arachidis (Cercospora arachidicola). The data set can be described thus: Mycosphaerella arachidis (Cercospora arachidicola)/Liquid Culture (Early Leaf Spot). In kind it is cell-based. The note with it: liquid culture, compared to untreated control. As to the method: as §1
For data set [6], the system named is Phytophthora infestans. Nature of the data set: whole plant or invertebrate. In kind it is in vivo. The following applies: in Solanum lycopersicum, foliar, read-out: control of Phytophthora infestans.
Data set [7] relates to Plasmopara viticola. Nature of the data set: whole plant or invertebrate. The note with it: foliar, read-out: control of Plasmopara viticola. In kind it is in vivo.
Data set [8] deals with Puccinia recondita f. sp. tritici. Nature of the data set: Puccinia recondita f. sp. tritici/Wheat/Leaf Disc Preventative (Brown Rust). In kind it is in vivo. The note with it: foliar, 200 ppm, wheat leaf disc preventative, compared to untreated control, read-out: control of Puccinia recondita f. sp. tritici.
Data set [9] concerns Magnaporthe grisea (Pyricularia oryzae). The data set can be described thus: whole plant or invertebrate. Format: in vivo. The following applies: foliar, read-out: control of Magnaporthe grisea.
Data set [10] has as its system Mycosphaerella graminicola (Septoria tritici). The data set can be described thus: Mycosphaerella graminicola (Septoria tritici)/Liquid Culture (Septoria Blotch). Format: cell-based. The following applies: Zymoseptoria tritici; 20 ppm; liquid culture; compared to untreated control. On the procedure:
Conidia of the fungus from cryogenic storage are directly mixed into nutrient broth (PDB potato dextrose broth). After placing a (DMSO) solution of test compound into a microtiter plate (96-well format), the nutrient broth containing the fungal spores is added. […] The data are presented as the percentage of disease control of each compound for the biological tests against G. lagenarium (Example B3), P. recondita preventative (Example B13), P. teres (Example B15) and M. graminicola (Example B19) as described above. The testing rates of each biological test is specifically described in table C1 below.

Data set [11] relates to Blumeria graminis f. sp. tritici (Erysiphe graminis f. sp. tritici). Nature of the data set: Blumeria graminis f. sp. tritici/Wheat/Leaf Disc Preventative (Powdery Mildew on Wheat). The note with it: foliar, wheat leaf disc preventative, compared to untreated control. In kind it is in vivo. As to the method:
Wheat leaf segments cv. Kanzler are placed on agar in a multiwell plate (24-well format) and sprayed with the formulated test compound diluted in water. The leaf disks are inoculated by shaking powdery mildew infected plants above the test plates 1 day after application. The inoculated leaf disks are incubated at 20° C. and 60% rh under a light regime of 24 h darkness followed by 12 h light/12 h darkness in a climate chamber and the activity of a compound is assessed as percent disease control compared to untreated when an appropriate level of disease damage appears on untreated check leaf segments (6-8 days after application).

For data set [12], the system named is Phakopsora pachyrhizi. The data set can be described thus: Phakopsora pachyrhizi/Soybean/Preventative (Soybean Rust). The following applies: foliar, 288 h, 200 ppm, soybean leaf disc preventative, compared to untreated control, read-out: control of Phakopsora pachyrhizi. Format: in vivo.
The subject of data set [13] is Puccinia recondita f. sp. tritici. The data set can be described thus: Puccinia recondita f. sp. tritici/Wheat/Leaf Disc Curative (Brown Rust). In kind it is in vivo. The note with it: foliar, wheat leaf disc curative, compared to untreated control. As to the method: Wheat leaf segments cv. Kanzler are placed on agar in multiwell plates (24-well format). The leaf segments are inoculated with a spore suspension of the fungus. Plates are stored in darkness at 19° C. and 75% rh. The formulated test compound diluted in water is applied 1 day after inoculation. The leaf segments are incubated at 19° C. and 75% rh under a light regime of 12 h light/12 h darkness in a climate cabinet and the activity of a compound is assessed as percent disease control compared to untreated when an appropriate level of disease damage appears in untreated check leaf segments (6-8 days after application).

Turning to `CCCc1nn(-c2ccc(C)c(O/C(=C\OC)C(=O)OC)c2)cc1Cl` [Compound E-6, methyl (Z)-2-[5-(4-chloro-3-propyl-pyrazol-1-yl)-2-methyl-phenoxy]-3-methoxy-prop-2-enoate], the inhibition of growth at 20 ppm in data set [1], in data set [2], in data set [4], in [5] and in data set [10] was not below 80% throughout. Also, the pest or weed control at 200 ppm in [3], in data set [6], in data set [7], in data set [8] and in [9] was not below 80% in each case.

For the compound `CO/C=C(\Oc1cc(-n2ccc(CC#N)n2)ccc1C)C(=O)OC` [Compound E-33, methyl (Z)-2-[5-[3-(cyanomethyl)pyrazol-1-yl]-2-methyl-phenoxy]-3-methoxy-prop-2-enoate], the melting point lay in the range of 120 to 123 °C. This compound yielded an inhibition of growth at 20 ppm in data set [1] not below 80%. In data set [2], this compound returned an inhibition of growth at 20 ppm not below 80%. For the same compound, in data set [4], the inhibition of growth at 20 ppm is not below 80%. In addition, in data set [5], the inhibition of growth at 20 ppm was not below 80%. Further, the pest or weed control at 200 ppm in [7] is not below 80%. In addition, the pest or weed control at 200 ppm in data set [8] was not below 80%. The inhibition of growth at 20 ppm in data set [10] is not below 80%.

Take `CO/C=C(\Oc1cc(-n2cc(COC)cn2)ccc1C)C(=O)OC` [Compound E-51, methyl (Z)-3-methoxy-2-[5-[4-(methoxymethyl)pyrazol-1-yl]-2-methyl-phenoxy]prop-2-enoate]: the inhibition of growth at 20 ppm in data set [1], in data set [2], in data set [4], in data set [5] and in [10] was not below 80% in each case. In addition, the pest or weed control at 200 ppm in [11] is not below 80%; in data set [12], not below 50%; in data set [7], not below 80%; in data set [13], not below 80%; in data set [8], not below 80%; in data set [9], not below 80%.

`CO/C=C(\Oc1cc(-n2ccc(SC(F)(F)F)n2)ccc1C)C(=O)OC` [Compound E-61, methyl (Z)-3-methoxy-2-[2-methyl-5-[3-(trifluoromethylsulfanyl)pyrazol-1-yl]phenoxy]prop-2-enoate] yielded a melting point of 137 to 139 °C. The compound further displayed an inhibition of growth at 20 ppm in [1] not below 80%. This compound registered an inhibition of growth at 20 ppm in [2] not below 80%. The same compound yielded a pest or weed control at 200 ppm in data set [11] not below 80%. For the same compound, the inhibition of growth at 20 ppm in [4] was not below 80%. The same compound gave an inhibition of growth at 20 ppm in [5] not below 80%. The pest or weed control at 200 ppm in [12] is not below 50%. Further, the pest or weed control at 200 ppm in data set [6] is not below 80%. In addition, in [7], the pest or weed control at 200 ppm is not below 80%. In [8], the pest or weed control at 200 ppm was not below 80%. For the same compound, the pest or weed control at 200 ppm in data set [9] was not below 80%. Further, the inhibition of growth at 20 ppm in [10] was not below 80%.

For the compound `CO/C=C(\Oc1cc(-n2ccc(C(F)F)n2)ccc1Br)C(=O)OC` [Compound E-86, methyl (Z)-2-[2-bromo-5-[3-(difluoromethyl)pyrazol-1-yl]phenoxy]-3-methoxy-prop-2-enoate], the inhibition of growth at 20 ppm in data set [1], in [2], in data set [4], in data set [5] and in [10] was not below 80% each time. Besides, the pest or weed control at 200 ppm in [11], in data set [3], in [8] and in data set [9] was not below 80% in each case.

Take `CO/C=C(\Oc1cc(-n2ccc(C(F)(F)F)n2)ccc1Br)C(=O)OC` [Compound E-87, methyl (Z)-2-[2-bromo-5-[3-(trifluoromethyl)pyrazol-1-yl]phenoxy]-3-methoxy-prop-2-enoate]: the inhibition of growth at 20 ppm in data set [1], in data set [2], in data set [4], in data set [5] and in [10] was not below 80% in each case. In addition, the pest or weed control at 200 ppm in data set [11] is not below 80%; in data set [12], not below 50%; in [6], not below 80%; in [7], not below 80%; in [8] it was not below 80%.

Turning to `CO/C=C(\Oc1cc(-n2ccc(C(F)F)n2)ccc1C)C(=O)OC` [Compound E-96, methyl (Z)-2-[5-[3-(difluoromethyl)pyrazol-1-yl]-2-methyl-phenoxy]-3-methoxy-prop-2-enoate], the inhibition of growth at 20 ppm in [1], in [2], in [4], in [5] and in data set [10] was not below 80% each time. The pest or weed control at 200 ppm in [11], in [3], in data set [6], in [7], in data set [13] and in [8] was not below 80% throughout.

In turn, `CO/C=C(\Oc1cc(-n2ccc(Cl)n2)ccc1C)C(=O)OC` [Compound E-100, methyl (Z)-2-[5-(3-chloropyrazol-1-yl)-2-methyl-phenoxy]-3-methoxy-prop-2-enoate] registered a melting point of 150 to 152 °C. The compound further returned an inhibition of growth at 20 ppm in data set [1] not below 80%. In [2], this compound returned an inhibition of growth at 20 ppm not below 80%. The compound further registered a pest or weed control at 200 ppm in data set [11] not below 80%. The pest or weed control at 200 ppm in [3] was not below 80%. The compound further came in with an inhibition of growth at 20 ppm in data set [4] not below 80%. The same compound displayed an inhibition of growth at 20 ppm in data set [5] not below 80%. Further, the pest or weed control at 200 ppm in data set [6] is not below 80%. In addition, the pest or weed control at 200 ppm in [7] is not below 80%. In [8], the pest or weed control at 200 ppm was not below 80%. Besides, the pest or weed control at 200 ppm in [9] was not below 80%. This compound also came in with an inhibition of growth at 20 ppm in [10] not below 80%.

For `CO/C=C(\Oc1cc(-n2ccc(C)n2)ccc1C)C(=O)OC` [Compound E-104, methyl (Z)-3-methoxy-2-[2-methyl-5-(3-methylpyrazol-1-yl)phenoxy]prop-2-enoate], the inhibition of growth at 20 ppm in [1], in [2], in data set [4], in [5] and in data set [10] was not below 80% in each case. Moreover, the pest or weed control at 200 ppm in data set [11], in data set [3], in [8] and in data set [9] was not below 80% throughout.

Consider `CO/C=C(\Oc1cc(-n2ncc(C3CC3)n2)ccc1C)C(=O)OC` [Compound F-8, methyl (Z)-2-[5-(4-cyclopropyltriazol-2-yl)-2-methyl-phenoxy]-3-methoxy-prop-2-enoate], for which the inhibition of growth at 20 ppm in [1], in data set [2], in data set [4], in data set [5] and in data set [10] was not below 80% throughout. The pest or weed control at 200 ppm in [11], in [3], in [6] and in [7] was not below 80% each time.

The record behind these values is patent publication US12043600B2, “Microbiocidal compounds” (SYNGENTA CROP PROTECTION AG, priority 2018, dated 2024).
